Literature values as cited in US10105405B2, “Compositions and methods for enhancing brain function using acetyl-L-carnitine, huperzine A and ginkgo biloba” (priority 2006, dated 2018).

Tested on: aged subjects, patients with benign senescent forgetfulness, Alzheimer's disease (AD) and vascular dementia (VD)

For C/C=C1\[C@H]2C=C(C)C[C@]1(N)c1ccc(=O)[nH]c1C2 [Huperzine A], the memory deficits (clinical trials in China) is given as “significantly relieves memory deficits” and the “peripheral cholinergic side effects” value (compared with other AChEIs in use) is given as “minimal peripheral cholinergic side effects”.
